Laboratory results as given in patent US20230287027A1, “ADJUVANT WITH TLR4 AGONIST ACTIVITY” (Sumitomo Pharma Co., Ltd, priority 2020, published 2023).

What was measured:
human TLR4 = target: T1, human TLR4 (Homo sapiens, UniProt O00206+Q9Y6Y9); experiment: Human TLR4 reporter gene assay (Test 1); assay type: cell-based; details: HEK-Blue hTLR4 cell line, SEAP reporter, 37° C. 16-20 hours, 0.1% DMSO; concentration giving half of maximal SEAP level induced with LPS
T1 construct: host or cells: HEK-Blue hTLR4 cell line
T1 sequence (O00206 24-839): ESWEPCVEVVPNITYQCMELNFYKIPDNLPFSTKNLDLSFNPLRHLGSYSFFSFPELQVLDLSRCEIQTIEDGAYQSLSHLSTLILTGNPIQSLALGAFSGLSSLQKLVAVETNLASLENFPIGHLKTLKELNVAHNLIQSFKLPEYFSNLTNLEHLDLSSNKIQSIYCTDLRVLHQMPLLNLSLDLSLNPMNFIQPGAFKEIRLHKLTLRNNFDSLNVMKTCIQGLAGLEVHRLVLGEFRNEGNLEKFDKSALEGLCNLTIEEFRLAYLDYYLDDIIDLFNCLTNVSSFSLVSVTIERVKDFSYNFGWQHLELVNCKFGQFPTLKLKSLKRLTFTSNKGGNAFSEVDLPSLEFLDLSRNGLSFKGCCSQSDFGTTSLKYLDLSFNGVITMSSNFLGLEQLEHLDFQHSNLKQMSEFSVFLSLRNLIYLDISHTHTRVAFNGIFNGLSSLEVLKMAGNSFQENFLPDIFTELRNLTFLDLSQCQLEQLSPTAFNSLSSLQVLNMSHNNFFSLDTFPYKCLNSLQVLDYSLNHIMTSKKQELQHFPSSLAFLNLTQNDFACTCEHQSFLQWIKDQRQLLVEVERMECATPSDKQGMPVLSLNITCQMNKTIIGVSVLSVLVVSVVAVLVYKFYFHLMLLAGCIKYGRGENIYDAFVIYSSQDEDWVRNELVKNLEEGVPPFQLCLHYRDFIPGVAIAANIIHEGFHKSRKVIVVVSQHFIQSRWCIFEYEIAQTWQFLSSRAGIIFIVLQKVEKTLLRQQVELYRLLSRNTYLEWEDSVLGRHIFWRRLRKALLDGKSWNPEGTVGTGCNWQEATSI
T1 sequence (Q9Y6Y9 17-160 limits assumed): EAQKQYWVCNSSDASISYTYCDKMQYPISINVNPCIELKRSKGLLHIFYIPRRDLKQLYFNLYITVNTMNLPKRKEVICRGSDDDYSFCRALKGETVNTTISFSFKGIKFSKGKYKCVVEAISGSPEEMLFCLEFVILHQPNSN
From the text: Human TLR4 Reporter Gene Assay
HEK-Blue™ hTLR4 cell line (Invivogen Corporation) is a stably co-transfected cell line which expresses human TLR4, MD2, CD14, and secretory alkaline phosphatase (SEAP) reporter gene under the transcriptional regulation of an NF-κB response element. The TLR4 expression of the cell line has been already tested by RT-PCR, flow cytometry. Transfectants with stable expression were selected using the antibiotic HEK-Blue™ Selection. TLR signaling leads to the translocation of NF-κB and the activation of the promoter results in expression of the SEAP gene. TLR4-specific activation was assessed by determining the level of SEAP produced following incubation of the cells at 37° C. for 16-20 hours with each compound prepared in Examples and Reference examples in the presence of 0.1% (v/v) DMSO. The human TLR4 activity for the present compound was assessed by human TLR4 reporter gene assay, and the concentration of the compound concentration which produced half of the maximal level of SEAP induced with lipopolysaccharide (LPS) was determined as EC50.

OVA-specific IgG2c = experiment: Test 3: OVA-specific IgG2c in serum of immunized mice by ELISA; assay type: in vivo, C57BL/6 male mouse; details: mouse, intramuscular with OVA, liposome formulation, 10 or 100 μg/mouse, two immunizations, serum one week after the additional immunization; compared with the negative control group
Protocol: FIG. 1 is a graph showing the results of measuring OVA-specific IgG2c in immunized mouse serum in mice to which the formulation prepared in Example 6 or 7 was intramuscularly administered, by ELISA in Test 3. The vertical axis indicates the antibody titer of OVA-specific IgG2c in serum. The horizontal axis indicates the administered sample (administered dose in parentheses). 1: negative control group (phosphate buffered saline), 2: Example 6 administration group (the compound of Example 1, 10 μg/mouse), 3: Example 6 administration group (the compound of Example 1, 100 μg/mouse), 4: Example 7 administration group (the compound of Example 2, 10 μg/mouse), 5: Example 7 administration group (the compound of Example 2, 100 μg/mouse).
FIG. 2 is a graph showing the results of measuring OVA-specific IgG2c in immunized mouse serum in mice to which the formulation prepared in Reference Example 16 or Example 6 was intramuscularly administered, by ELISA in Test 3. The vertical axis indicates the antibody titer of OVA-specific IgG2c in serum. The horizontal axis indicates the administered sample (administered dose in parentheses). […]
An equal mixture of ovalbumin (OVA) (2 mg/mL) as an antigen and the formulation prepared in Example 6, Example 7, or Reference example 16 (containing 0.2 or 2 mg/mL the compound of Example 1, Example 2, or Reference example 9) was intramuscularly administered to the gastrocnemius of a 7-week-old C57BL/6 male mouse (100 μL/mouse), which was defined as the first immunization. […] The OVA-specific IgG2c value in each serum was measured by the following ELISA method. To 96-well plate, OVA solution (SIGMA) was added, 1% Skim Milk (Wako) was added for blocking, the serum sample which was diluted with phosphate buffer solution was added, caprine antimouse IgG2c (Southern Bio) as the secondary antibody was added, SureBlue™ TMB Micrewell Peroxidase Substrate (KPL) was added, and then the product of the enzymatic reaction was quantified with a microplate reader.

Structure (SMILES) | EC50 (human TLR4) | OVA-specific IgG2c induction (OVA-specific IgG2c)
CCCCCCCCCCC[C@H](CC(=O)NC1C(OC[C@@H](NC(=O)C[C@@H](CCCCCCCCCCC)OC(=O)CCCCCCCCC)C(=O)O)OC(CO)C(O)C1OC(=O)C[C@@H](CCCCCCCCCCC)OC(=O)CCCCCCCCc1ccccc1)OC(=O)CCCCCCCCC (stereo partly drawn) [Example 1, (2R)-2-{[(3R)-3-(Decanoyloxy)tetradecanoyl]amino}-3-{[3-{[(3R)-3-(decanoyloxy)tetradecanoyl]amino}-5-hydroxy-6-(hydroxymethyl)-4-({(3R)-3-[(9-phenylnonanoyl)oxy]tetradecanoyl}oxy)oxan-2-yl]oxy}propanoic acid] | 0.0435 µM | significantly strong
CCCCCCCCCCC[C@H](CC(=O)NC1C(OC[C@H](NC(=O)C[C@@H](CCCCCCCCCCC)OC(=O)CCCCCCCCC)C(=O)O)OC(CO)C(O)C1OC(=O)C[C@@H](CCCCCCCCCCC)OC(=O)CCCCCCCCc1ccccc1)OC(=O)CCCCCCCCC (stereo partly drawn) [Example 2, (2S)-2-{[(3R)-3-(decanoyloxy)tetradecanoyl]amino}-3-{[3-{[(3R)-3-(decanoyloxy)tetradecanoyl]amino}-5-hydroxy-6-(hydroxymethyl)-4-({(3R)-3-[(9-phenylnonanoyl)oxy]tetradecanoyl}oxy)oxan-2-yl]oxy}propanoic acid] | 0.015 µM | significantly strong
CCCCCCCCCCC[C@H](CC(=O)NC1C(OC[C@@H](NC(=O)C[C@@H](CCCCCCCCCCC)OC(=O)CCCCCCCCC)C(=O)O)OC(CO)C(OP(=O)(O)O)C1OC(=O)C[C@@H](CCCCCCCCCCC)OC(=O)CCCCCCCCc1ccccc1)OC(=O)CCCCCCCCC (stereo partly drawn) [Reference example 9, (2R)-2-{[(3R)-3-(Decanoyloxy)tetradecanoyl]amino}-3-{[3-{[(3R)-3-(decanoyloxy)tetradecanoyl]amino}-6-(hydroxymethyl)-4-({(3R)-3-[(9-phenylnonanoyl)oxy]tetradecanoyl}oxy)-5-(phosphonooxy)oxan-2-yl]oxy}propanoic acid, reference compound] | 0.0439 µM | significantly strong
